Laboratory results reported in article PMC4809498, “Artonin E Induces Apoptosis via Mitochondrial Dysregulation in SKOV-3 Ovarian Cancer Cells” (PLoS ONE, 2016).
≈ marks a conversion by molar mass, not a printed value.

Legend:
[1] = system: SKOV-3 cells; experiment: MTT cell viability assay, SKOV-3; assay type: cell-based, human; conditions: SKOV-3, MTT; for IC50: Homo sapiens
Protocol: (§1) Metastatic ovarian adenocarcinoma (SKOV-3) and normal Chinese hamster ovary (CHO) cell lines were originally obtained from the American Type Culture Collection (ATCC; Manassas, VA). SKOV-3 cells were cultured in McCoy’s 5A medium and CHO cells were cultured in F12K medium. A human periodontal ligament fibroblast cell line was purchased from Lonza, USA and maintained in stroma cell basal medium. T1074 (normal immortalized human ovarian surface epithelial cell line) was originally purchased from Applied Biological Materials (abm®) Canada and cultured in Prigrow 1 medium.
(§2) The inhibitory effects of artonin E and two positive controls paclitaxel and carboplatin were examined by MTT assay. Cells at a density of 5×10^3cells/well were placed in a 96-well plate and left for 24 h to attach. The attached cells were exposed to artonin E, paclitaxel, and carboplatin at different concentrations and incubated for 24, 48, and 72 h. Subsequently, 20 μL of 5 mg/mL MTT solution was added after drug treatment and the resulting mixture was incubated for 4 h to form purple formazan. Afterward, 100 μL of dimethyl sulfoxide (DMSO) was transferred into each well to dissolve the purple formazan, and results were measured using a microplate reader (Tecan Infinite M 200 PRO, Männedorf, Switzerland) at an absorbance of 570 nm. The half-maximal concentrations that caused cell growth inhibition (IC50 values) were obtained from the MTT viability growth curve.

[2] = system: caspase-9; experiment: Colorimetric caspase-9 activation assay; assay type: cell-based, human; conditions: SKOV-3, 8 μg/mL, from 24 h, prolonged exposure
Protocol: (§3) Calorimetric assay of the activation of caspases-3, -8, and -9 was conducted using R & D system kit, USA. Briefly, in a T75cm^2 flask 90% confluent SKOV-3 cells were induced with artonin E for 24, 48, and 72 h. The induced cells were trypsinized and centrifuged at 1,800 rpm for 10 min. The fresh pellets were washed with cold PBS and immediately lysed with protein lysis buffer. The cell lysate was then kept on ice for 10 min, centrifuged at 10,000 g for 15 min, and transferred into a new tube. The fresh cell lysate (50 μL), which contained 100–200 μg of protein, was added into a 96-well plate in triplicate. Fifty microliters of reaction buffer and 5 μL of caspase were then transferred into each designated well before incubating the plate in a CO2 incubator at 37°C for 2 h. A microplate reader (Tecan Infinite M 200 PRO, Männedorf, Switzerland) was used for analysis at a wavelength of 405 nm.

[3] = system: H460 cells; design: method as in PMID 23225436; conditions: dose-dependent manner; cited from earlier work
[4] = design: method as in PMID 17855020; conditions: cited from earlier work
[5] = system: T1074 cells; experiment: MTT cell viability assay, T1074; assay type: cell-based, human; conditions: Homo sapiens
Protocol: as §1, §2

[6] = system: SKOV-3 cells; experiment: Multiparametric Cytotoxicity 3 high-content screening; assay type: cell-based, human; conditions: SKOV-3, 8 μg/mL
Protocol: Cellomics Multiparameter Cytotoxicity 3 kit (Thermo Scientific^TM, Pittsburgh, PA, USA) was used to perform simultaneous detection of the crucial apoptotic events in SKOV-3 cells treated with artonin E. Briefly, SKOV-3 cells were seeded at a density of 5000 cells/well in a black flat-bottomed 96-well plates (PerkinElmer, Inc., Wellsley, MA, USA) and left overnight to attach. The attached cells were treated with 8 μg/mL artonin E for 24, 48, and 72 h. The treated cells were then exposed to 50 μL of live cell staining solution for 30 min. The excess medium and live cell staining solution were gently removed and the cells were then fixed with 16% paraformaldehyde. After fixation, the cells were exposed with permeabilization buffer followed by blocking buffer for 15 min at room temperature. Primary Cytochrome C antibodies and secondary DyLight 649 conjugated goat antimouse IgG were added and allowed to interact for 1 h each. Hoechst 33342 dye was used to stain nuclei in SKOV-3 cells. Stained SKOV-3 cells in the 96-well plates were analyzed using ArrayScan high-content screening (HCS) system. All experiments were conducted in triplicates and experiments were repeated twice.

[7] = system: caspase-3; experiment: Colorimetric caspase-3 activation assay; assay type: cell-based, human; conditions: SKOV-3, 8 μg/mL, 48 and 72 h treatment
Protocol: as §3

[8] = system: caspase-8; experiment: Colorimetric caspase-8 activation assay; assay type: cell-based, human; conditions: SKOV-3, 8 μg/mL, 48 and 72 h treatment
Protocol: as §3

Structure (SMILES): CC(C)=CCc1c(-c2cc(O)c(O)cc2O)oc2c3c(cc(O)c2c1=O)OC(C)(C)C=C3 [Artonin E, artonin E]
- IC50 ([1]; SK-OV-3, 24 h, 24 h treatment): 12.8 ± 0.28 µg/mL (≈ 29.4 µM)
- IC50 ([1]; SK-OV-3, 48 h, 48 h treatment): 8 µg/mL (≈ 18.3 µM)
- IC50 ([1]; SK-OV-3, 72 h, 72 h treatment): 6.5 ± 0.5 µg/mL (≈ 14.9 µM)
- IC50 values ([1]; 48 h treatment): 8.8 ± 0.29 µg/mL (≈ 20.2 µM)
- stimulation of caspase-9 [2]: increased significantly
- anoikis (detachment-induced apoptosis) of H460 cells [3]: enhances anoikis
- radical scavenging against the DPPH radical [4]: strong radical scavenging properties
- IC50 ([5]; 24 h treatment): 44.8 ± 0.76 µg/mL (≈ 103 µM)
- IC50 ([5]; 48 h treatment): 37.5 ± 0.53 µg/mL (≈ 85.9 µM)
- IC50 ([5]; 72 h treatment): 32.5 ± 0.5 µg/mL (≈ 74.5 µM)
- cytochrome c fluorescence intensities ([6]; prolonged treatment periods): increase
- cell permeability ([6]; time-dependent (24, 48, 72 h)): marked increased
- green fluorescence intensity of MMP ([6]; time-dependent (24, 48, 72 h)): significant (p<0.05) reduction
- activation of caspase-3 [7]: significantly (p<0.05)elevated
- activation of caspase-8 [8]: significantly (p<0.05)elevated
